PMC11385386 (Nature Communications, 2024)

Target: IDH1^R132H (Homo sapiens, UniProt O75874, R132H)
Assay: Affinity of IDH1 R132H for NADPH
Assay type: binding

Chain of IDH1^R132H (O75874 whole entry R132H): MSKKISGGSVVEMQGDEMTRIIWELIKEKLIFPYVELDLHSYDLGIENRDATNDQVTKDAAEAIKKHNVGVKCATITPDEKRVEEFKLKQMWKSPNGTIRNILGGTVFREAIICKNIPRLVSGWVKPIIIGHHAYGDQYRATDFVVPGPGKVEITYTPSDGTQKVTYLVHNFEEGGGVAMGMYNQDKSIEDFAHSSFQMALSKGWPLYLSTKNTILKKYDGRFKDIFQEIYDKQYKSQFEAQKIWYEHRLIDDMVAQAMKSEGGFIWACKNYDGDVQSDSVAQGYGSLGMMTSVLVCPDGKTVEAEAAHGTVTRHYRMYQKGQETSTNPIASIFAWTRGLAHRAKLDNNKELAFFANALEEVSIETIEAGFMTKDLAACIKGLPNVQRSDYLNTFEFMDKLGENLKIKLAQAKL

Kd: ~50 nM
Compound: NC(=O)C1=CN([C@@H]2O[C@H](COP(=O)(O)OP(=O)(O)OC[C@H]3O[C@@H](n4cnc5c(N)ncnc54)[C@H](OP(=O)(O)O)[C@@H]3O)[C@@H](O)[C@H]2O)C=CC1 [NADPH]
